Test results: patent publication US11214803B2, “Modulators of YAP1 expression” (Ionis Pharmaceuticals, Inc., priority 2019, dated 2022)

Key:
Yap1 mRNA [1] = test: Inhibition of human Yap1 mRNA in SNU449 hepatocellular carcinoma xenograft tumors (Example 26); type: in vivo; conditions: SNU449 xenografts in NSG mice, 50 mg/kg twice weekly for five days, relative to PBS treated animals
Summary of the method: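 Female NSG mice bearing subcutaneous SNU449 xenografts (about 100 mm^3) dosed with modified oligonucleotides at 50 mg/kg twice weekly for five days, four per group. Tumour Yap1 mRNA measured by RT-qPCR, normalized to actin-beta, expressed as % of PBS-treated controls.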

[2] = Cynomolgus monkey tolerability, hematology (Example 34); type: in vivo, cynomolgus monkeys; conditions: for BAS / EOS / HCT / HGB / LUC / LYM / MCH / MCHC / MCV / MON / NEU / PLT / RBC / RCDW / Retic / WBC: cynomolgus monkey, in vivo, sc, 35 mg/kg; for MPV: cynomolgus monkeys, 35 mg/kg subcutaneously, day 44
Description: To evaluate any effect of Ionis oligonucleotides in cynomolgus monkeys on hematologic parameters, blood samples of approximately 0.5 mL of blood was collected from each of the available study animals on day 44. The samples were collected in tubes containing K2-EDTA. Samples were analyzed for red blood cell (RBC) count, Hemoglobin (HGB), Hematocrit (HCT), Mean corpuscular volume (MCV), mean corpuscular hemoglobin (MCH), mean corpuscular hemoglobin concentration (MCHC), RBC Distribution Width (RCDW), reticulocyte count (Retic), platelet count (PLT), mean platelet volume (MPV), white blood cells (WBC) count, individual white blood cell counts, such as that of monocytes (MON), neutrophils (NEU), lymphocytes (LYM), eosinophils (EOS), basophils (BAS), and large unstained cells (LUC) using an ADVIA2120i hematology analyzer (Siemens, USA).

[3] = Cynomolgus monkey tolerability, coagulation (Example 34); type: in vivo; conditions: cynomolgus monkeys, 35 mg/kg subcutaneously, day 44
Description: To evaluate effect of Ionis modified oligonucleotides on coagulation in cynomolgus monkeys, blood samples of approximately 0.9 mL were collected from each of the available study animals on day 44. The samples were collected in tubes containing 3.2% sodium citrate. Coagulation parameters tested include Activated partial thromboplastin time (APTT), prothrombin time (PT) and Figrinogen (FIB).

Yap1 mRNA [4] = test: Yap1 mRNA in SCC25 cells, RNA analysis (Example 25); type: cell-based, human; conditions: free uptake, 48 hours, RTS4814, normalized to actin-beta
Description: Modified oligonucleotides described in the studies above were tested at various doses in squamous cell carcinoma cell SCC25. A control oligonucleotide 792169 (a 3-10-3 cET gapmer with a full phosphorothioate backbone, […], designated herein as SEQ ID No.: 2940; is not complementary to any known human gene) was also tested.
Cultured SCC25 cells at a density of 5,000 cells per well were treated using free uptake with modified oligonucleotides diluted to concentrations described in the tables below. After approximately 48 hours, Yap1 mRNA levels were measured as previously described using the Human Yap1 primer-probe set RTS4814. Yap1 mRNA levels were normalized to actin-beta content, as measured by primer probe set RTS5002 (forward sequence […], designated herein as SEQ ID NO.: 20; reverse sequence […], designated herein as SEQ ID NO.: 21; probe sequence […], designated herein as SEQ ID NO.: 22). Results are presented in the tables below as percent control of the amount of Yap1 mRNA relative to untreated control cells (% UTC).

Yap1 mRNA [5] = test: Dose-dependent inhibition of human Yap1 in A-431 cells (Example 24, 11,000 cells per well, RTS36584, normalized to GAPDH); type: cell-based; conditions: free uptake, 48 hours; for Yap1 mRNA, % UTC: RTS36584, normalized to GAPDH; for IC50: linear regression on a log/linear plot
Description: Modified oligonucleotides described in the studies above were tested at various doses in A-431 cells. Cultured A-431 cells at a density of 11,000 cells per well were treated using free uptake with modified oligonucleotides diluted to concentrations described in the tables below. After approximately 48 hours, Yap1 mRNA levels were measured as previously described using the Human Yap1 primer-probe set RTS36584. Yap1 mRNA levels were normalized to GAPDH content, as measured by primer probe set RTS104 (forward sequence […], designated herein as SEQ ID NO.: 17; reverse sequence […], designated herein as SEQ ID NO.: 18; probe sequence […], designated herein as SEQ ID NO.: 19). Results are presented in the tables below as percent control of the amount of Yap1 mRNA relative to untreated control cells (% UTC). IC50s were calculated using a linear regression on a log/linear plot of the data in excel.

[6] = Cynomolgus monkey tolerability, kidney and liver function markers (Example 34); conditions: cynomolgus monkeys, 35 mg/kg subcutaneously, day 44

For “1198439 (AGTGTATGTCAGAAGA; sugar, 5-methylcytosine, phosphorothioate modifications, further chemistry not given here) [compound 1198439]”, the “Yap1 mRNA in tumors, % control” value (Yap1 mRNA [1]) was 51 % control, the BAS [2] was 0.3% and the EOS [2] was 1.5%. For the same substance, the HCT [2] was 48%, the HGB [2] was 14 g/dL and the LUC [2] was 0.6%. The LYM [2] was 68%, the MCH [2] was 22 pg and the MCHC [2] was 28 g/dL. The MCV [2] was 79 fL, the MON [2] was 2.9% and the NEU [2] was 27%. The PLT [2] was 367 10^3/μL, the RBC [2] was 6e+06 µL⁻¹ and the RCDW [2] was 12%. For the same substance, the Retic [2] was 1.2%, the WBC [2] was 10300 µL⁻¹ and the MPV [2] was 7.6 fL. The APTT [3] was 19 s, the FIB [3] was 246 mg/dL and the PT [3] was 10 s. The “Yap1 mRNA, % UTC” value (Yap1 mRNA [4]; 0.04 μM) was 35 % UTC, the “Yap1 mRNA, % UTC” value (Yap1 mRNA [4]; 0.2 μM) was 12 % UTC and the “Yap1 mRNA, % UTC” value (Yap1 mRNA [4]; 1 μM) was 5 % UTC. For the same substance, the “Yap1 mRNA, % UTC” value (Yap1 mRNA [4]; 5 μM) was 3 % UTC, the “Yap1 mRNA, % UTC” value (Yap1 mRNA [5]; 0.002 μM) was 0 % UTC and the “Yap1 mRNA, % UTC” value (Yap1 mRNA [5]; 0.008 μM) was 1 % UTC. The “Yap1 mRNA, % UTC” value (Yap1 mRNA [5]; 0.04 μM) was 11 % UTC, the “Yap1 mRNA, % UTC” value (Yap1 mRNA [5]; 0.2 μM) was 65 % UTC and the “Yap1 mRNA, % UTC” value (Yap1 mRNA [5]; 1 μM) was 93 % UTC. For the same substance, the IC50 (Yap1 mRNA [5]) was 20 nM, the ALB [6] was 4.0 g/dL and the ALP [6] was 1298 IU/L. The ALT [6] was 40 IU/L, the AST [6] was 65 IU/L and the BUN [6] was 24 mg/dL. It also gave a CREA [6] of 0.9 mg/dL, a GGT [6] of 63 IU/L and a GLO [6] of 2.8 g/dL. For the same substance, the GLU [6] was 115 mg/dL, the HDL [6] was 82 mg/dL and the LDL [6] was 59 mg/dL. The TBIL [6] was 0.2 mg/dL, the TG [6] was 28 mg/dL and the TP [6] was 6.8 g/dL.

For “1198440 (AAGTGTATGTCAGAAG; cEt, 2'-MOE, 5-methylcytosine, phosphorothioate modifications, further chemistry not given here) [compound 1198440]”, the “Yap1 mRNA in tumors, % control” value (Yap1 mRNA [1]) was 51 % control, the BAS [2] was 0.4% and the EOS [2] was 2.8%. The HCT [2] was 47%, the HGB [2] was 14 g/dL and the LUC [2] was 0.7%. It also gave an LYM [2] of 65%, an MCH [2] of 23 pg and an MCHC [2] of 29 g/dL. For the same substance, the MCV [2] was 80 fL, the MON [2] was 3.2% and the NEU [2] was 28%. For the same substance, the PLT [2] was 420 10^3/μL, the RBC [2] was 5.9e+06 µL⁻¹ and the RCDW [2] was 12%. For the same substance, the Retic [2] was 1.2%, the WBC [2] was 10900 µL⁻¹ and the MPV [2] was 7.5 fL. It also gave an APTT [3] of 20 s, an FIB [3] of 260 mg/dL and a PT [3] of 10 s. For the same substance, the “Yap1 mRNA, % UTC” value (Yap1 mRNA [4]; 0.04 μM) was 39 % UTC, the “Yap1 mRNA, % UTC” value (Yap1 mRNA [4]; 0.2 μM) was 14 % UTC and the “Yap1 mRNA, % UTC” value (Yap1 mRNA [4]; 1 μM) was 5 % UTC. The “Yap1 mRNA, % UTC” value (Yap1 mRNA [4]; 5 μM) was 3 % UTC, the “Yap1 mRNA, % UTC” value (Yap1 mRNA [5]; 0.002 μM) was 0 % UTC and the “Yap1 mRNA, % UTC” value (Yap1 mRNA [5]; 0.008 μM) was 1 % UTC. For the same substance, the “Yap1 mRNA, % UTC” value (Yap1 mRNA [5]; 0.04 μM) was 14 % UTC, the “Yap1 mRNA, % UTC” value (Yap1 mRNA [5]; 0.2 μM) was 69 % UTC and the “Yap1 mRNA, % UTC” value (Yap1 mRNA [5]; 1 μM) was 96 % UTC. The IC50 (Yap1 mRNA [5]) was 20 nM, the ALB [6] was 4.1 g/dL and the ALP [6] was 1412 IU/L. It also gave an ALT [6] of 45 IU/L, an AST [6] of 75 IU/L and a BUN [6] of 26 mg/dL. For the same substance, the CREA [6] was 0.9 mg/dL, the GGT [6] was 80 IU/L and the GLO [6] was 2.9 g/dL. The GLU [6] was 91 mg/dL, the HDL [6] was 104 mg/dL and the LDL [6] was 54 mg/dL. For the same substance, the TBIL [6] was 0.2 mg/dL, the TG [6] was 30 mg/dL and the TP [6] was 7.0 g/dL.

For “CGCCGATAAGGTACAC (cEt gapmer, phosphorothioate backbone, further chemistry not given here) [ION 792169, reference compound]”, the “Yap1 mRNA, % UTC” value (Yap1 mRNA [4]; 0.04 μM) was 96 % UTC, the “Yap1 mRNA, % UTC” value (Yap1 mRNA [4]; 0.2 μM) was 89 % UTC and the “Yap1 mRNA, % UTC” value (Yap1 mRNA [4]; 1 μM) was 93 % UTC. For the same substance, the “Yap1 mRNA, % UTC” value (Yap1 mRNA [4]; 5 μM) was 98 % UTC.
